Measurements as given in ChEMBL document CHEMBL1201861, “Genomics of Drug Sensitity in Cancer screening data, Wellcome Trust Sanger Institute”.
Values joined by “and” are separate entries in the source; they are usually repeats but may differ in a detail not shown here. Equal entries are not always repeated.

Tests used:
Assay in all cases: cells
[1] = test system: NMC-G1; assay type: functional, cell-based, Homo sapiens;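 note: growth inhibition of the NMC-G1 cell line, measured with a cell viability read-out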
Description: SANGER: Inhibition of human NMC-G1 cell growth in a cell viability assay.

[2] = test system: CAKI-1; assay type: functional, cell-based, Homo sapiens;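 note: growth inhibition of CAKI-1 cells, measured by a cell viability assay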
Description: SANGER: Inhibition of human CAKI-1 cell growth in a cell viability assay.

[3] = test system: TE-12; assay type: functional, cell-based; settings: Homo sapiens;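 note: growth inhibition of TE-12 cells, read out by a cell viability assay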
Description: SANGER: Inhibition of human TE-12 cell growth in a cell viability assay.

[4] = test system: PFSK-1; assay type: functional, cell-based, Homo sapiens;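 note: cell viability assay measuring how strongly compounds suppress growth of human PFSK-1 cells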
Description: SANGER: Inhibition of human PFSK-1 cell growth in a cell viability assay.

[5] = test system: 8-MG-BA; assay type: functional, cell-based, Homo sapiens;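 note: growth inhibition of 8-MG-BA cells, read out with a cell viability assay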
Description: SANGER: Inhibition of human 8-MG-BA cell growth in a cell viability assay.

[6] = test system: EM-2; assay type: functional, cell-based; settings: Homo sapiens;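 note: growth inhibition of EM-2 cells, read out with a cell viability assay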
Description: SANGER: Inhibition of human EM-2 cell growth in a cell viability assay.

[7] = test system: TE-11; assay type: functional, cell-based, Homo sapiens;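 note: growth inhibition of human TE-11 cells, read out by a cell viability assay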
Description: SANGER: Inhibition of human TE-11 cell growth in a cell viability assay.

[8] = test system: COLO-680N; assay type: functional, cell-based, Homo sapiens;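 note: cell viability assay used to measure inhibition of COLO-680N cell growth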
Description: SANGER: Inhibition of human COLO-680N cell growth in a cell viability assay.

[9] = test system: SK-MEL-30; assay type: functional, cell-based; settings: Homo sapiens;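 note: growth inhibition of SK-MEL-30 cells, determined with a cell viability assay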
Description: SANGER: Inhibition of human SK-MEL-30 cell growth in a cell viability assay.

[10] = test system: NOS-1; assay type: functional, cell-based, Homo sapiens;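 note: growth inhibition of the human NOS-1 cell line, read out with a cell viability assay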
Description: SANGER: Inhibition of human NOS-1 cell growth in a cell viability assay.

[11] = test system: MKN-7; assay type: functional, cell-based, Homo sapiens;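 note: growth inhibition of MKN-7 cells, read out with a cell viability assay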
Description: SANGER: Inhibition of human MKN7 cell growth in a cell viability assay.

[12] = test system: SNU-C2B; assay type: functional, cell-based, Homo sapiens;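 note: cell viability readout used to measure compound-driven suppression of SNU-C2B cell proliferation, IC50 marking half-maximal growth inhibition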
Description: SANGER: Inhibition of human SNU-C2B cell growth in a cell viability assay.

[13] = test system: Ca9-22; assay type: functional, cell-based, Homo sapiens;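 note: growth inhibition of Ca9-22 cells, read out with a cell viability assay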
Description: SANGER: Inhibition of human Ca9-22 cell growth in a cell viability assay.

[14] = test system: Ramos-2G6-4C10; assay type: functional, cell-based; settings: Homo sapiens;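 note: growth inhibition of the cell line, measured by a cell viability read-out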
Description: SANGER: Inhibition of human Ramos-2G6-4C10 cell growth in a cell viability assay.

[15] = test system: MSTO-211H; assay type: functional, cell-based, Homo sapiens
Description: SANGER: Inhibition of human MSTO-211H cell growth in a cell viability assay.

[16] = test system: LCLC-103H cell line; assay type: functional, cell-based, Homo sapiens
Description: SANGER: Inhibition of human LCLC-103H cell growth in a cell viability assay.

[17] = test system: BHY; assay type: functional, cell-based, Homo sapiens;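 note: cell growth inhibition read out by a viability assay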
Description: SANGER: Inhibition of human BHY cell growth in a cell viability assay.

[18] = test system: ACHN; assay type: functional, cell-based, Homo sapiens;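 note: cell viability read-out used to gauge how strongly growth of human ACHN cells is suppressed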
Description: SANGER: Inhibition of human ACHN cell growth in a cell viability assay.

[19] = test system: A204; assay type: functional, cell-based, Homo sapiens;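 note: growth inhibition of human A204 cells, read out with a cell viability assay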
Description: SANGER: Inhibition of human A204 cell growth in a cell viability assay.

[20] = test system: NCI-H358; assay type: functional, cell-based, Homo sapiens;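 note: growth inhibition of NCI-H358 human cells, read out with a cell viability assay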
Description: SANGER: Inhibition of human NCI-H358 cell growth in a cell viability assay.

[21] = test system: COR-L88; assay type: functional, cell-based; settings: Homo sapiens;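 note: growth inhibition of COR-L88 cells, read out with a cell viability assay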
Description: SANGER: Inhibition of human COR-L88 cell growth in a cell viability assay.

[22] = test system: SK-HEP1; assay type: functional, cell-based, Homo sapiens, SK-HEP-1;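 note: cell viability readout used to quantify reduction in proliferation of human SK-HEP-1 cells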
Description: SANGER: Inhibition of human SK-HEP-1 cell growth in a cell viability assay.

[23] = test system: KYSE-180; assay type: functional, cell-based, Homo sapiens;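 note: growth inhibition of KYSE-180 cells, read out with a cell viability assay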
Description: SANGER: Inhibition of human KYSE-180 cell growth in a cell viability assay.

[24] = test system: KP-4; assay type: functional, cell-based, Homo sapiens; settings: read-out: IC50;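 note: human KP-4 cells, with growth inhibition read out through a cell viability assay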
Description: SANGER: Inhibition of human KP-4 cell growth in a cell viability assay.

[25] = test system: NCI-H1563; assay type: functional, cell-based, Homo sapiens;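 note: growth inhibition of human NCI-H1563 cells, read out with a cell viability assay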
Description: SANGER: Inhibition of human NCI-H1563 cell growth in a cell viability assay.

[26] = test system: 8505C; assay type: functional, cell-based, Homo sapiens
Description: SANGER: Inhibition of human 8505C cell growth in a cell viability assay.

[27] = test system: HSC-2; assay type: functional, cell-based, Homo sapiens;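 note: growth inhibition of human HSC-2 cells, read out by a cell viability assay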
Description: SANGER: Inhibition of human HSC-2 cell growth in a cell viability assay.

[28] = test system: NCI-H1437; assay type: functional, cell-based, Homo sapiens;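 note: growth inhibition of human NCI-H1437 cells, read out by a cell viability assay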
Description: SANGER: Inhibition of human NCI-H1437 cell growth in a cell viability assay.

[29] = test system: MDA-MB-361; assay type: functional, cell-based, Homo sapiens
[30] = test system: WM-115; assay type: functional, cell-based, Homo sapiens
Description: SANGER: Inhibition of human WM-115 cell growth in a cell viability assay.

[31] = test system: GR-ST; assay type: functional, cell-based; settings: Homo sapiens
Description: SANGER: Inhibition of human GR-ST cell growth in a cell viability assay.

[32] = test system: COLO-678; assay type: functional, cell-based, Homo sapiens
Description: SANGER: Inhibition of human COLO-678 cell growth in a cell viability assay.

[33] = test system: KM12; assay type: functional, cell-based, Homo sapiens;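 note: KM12 cell growth inhibition, read out with a cell viability assay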
Description: SANGER: Inhibition of human KM12 cell growth in a cell viability assay.

[34] = test system: HuCCT-1; assay type: functional, cell-based, Homo sapiens, HuCCT1;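 note: growth inhibition of HuCCT-1 cells, read out by a cell viability assay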
Description: SANGER: Inhibition of human HuCCT1 cell growth in a cell viability assay.

[35] = test system: M059J; assay type: functional, cell-based, Homo sapiens;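 note: growth inhibition of M059J cells, read out with a cell viability assay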
Description: SANGER: Inhibition of human M059J cell growth in a cell viability assay.

[36] = test system: OAW-28; assay type: functional, cell-based, Homo sapiens;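 note: growth inhibition of OAW-28 cells, read out with a cell viability assay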
Description: SANGER: Inhibition of human OAW-28 cell growth in a cell viability assay.

[37] = test system: KP-N-YS; assay type: functional, cell-based; settings: Homo sapiens;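 note: cell viability assay measuring inhibition of cell line growth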
Description: SANGER: Inhibition of human KP-N-YS cell growth in a cell viability assay.

[38] = test system: EFO-27; assay type: functional, cell-based, Homo sapiens;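 note: growth inhibition of EFO-27 cells, read out with a cell viability assay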
Description: SANGER: Inhibition of human EFO-27 cell growth in a cell viability assay.

[39] = test system: RPMI-2650; assay type: functional, cell-based, Homo sapiens
Description: SANGER: Inhibition of human RPMI-2650 cell growth in a cell viability assay.

[40] = test system: HTC-C3; assay type: functional, cell-based, Homo sapiens;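 note: inhibition of cell growth, read out with a cell viability assay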
Description: SANGER: Inhibition of human HTC-C3 cell growth in a cell viability assay.

[41] = test system: D-336MG; assay type: functional, cell-based, Homo sapiens
Description: SANGER: Inhibition of human D-336MG cell growth in a cell viability assay.

[42] = test system: MDA-MB-175-VII; assay type: functional, cell-based, Homo sapiens
[43] = test system: D-542MG; assay type: functional, cell-based, Homo sapiens
Description: SANGER: Inhibition of human D-542MG cell growth in a cell viability assay.

[44] = test system: FaDu; assay type: functional, cell-based, Homo sapiens;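 note: cell viability readout of growth inhibition in FaDu cells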
Description: SANGER: Inhibition of human FADU cell growth in a cell viability assay.

[45] = test system: KNS-42; assay type: functional, cell-based, Homo sapiens;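 note: growth inhibition of KNS-42 cells, read out with a cell viability assay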
Description: SANGER: Inhibition of human KNS-42 cell growth in a cell viability assay.

[46] = test system: ES7; assay type: functional, cell-based, Homo sapiens;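 note: growth inhibition of cultured human ES7 cells, read out as cell viability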
Description: SANGER: Inhibition of human ES7 cell growth in a cell viability assay.

[47] = test system: KLE; assay type: functional, cell-based, Homo sapiens;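 note: growth inhibition of human KLE cells, read out with a cell viability assay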
Description: SANGER: Inhibition of human KLE cell growth in a cell viability assay.

[48] = test system: SW982; assay type: functional, cell-based; settings: Homo sapiens;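 note: growth inhibition of SW982 cells, read out with a cell viability assay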
Description: SANGER: Inhibition of human SW982 cell growth in a cell viability assay.

[49] = test system: MDA-MB-415; assay type: functional, cell-based; settings: Homo sapiens

Measured: IC50

Cc1cc([C@@H](C)Nc2ccccc2C(=O)O)c2nc(N3CCOCC3)cc(=O)n2c1 [AZD-6482]
> 5120 nM: [6] | [14] | [19]; Homo sapiens, A204 | [31]
1760 nM: [27]; Homo sapiens, HSC-2
4.71 µM: [2]; caki-1
2770 nM: [19]; a204
3.53 µM: [29]; Homo sapiens, MDA-MB-361
813 nM and 3260 nM: [46]; es7
> 5120 nM and 1240 nM: [34]; hucct1
1670 nM and 3430 nM: [41]; d-336mg
1140 nM: [27]; hsc-2
> 5120 nM and 2240 nM: [18]; achn
> 5.12 µM: [1]; Homo sapiens, NMC-G1 | [1]; nmc-g1 | [3] | [4]; pfsk-1 | [5]; 8-mg-ba | [7]; te-11 | [8]; colo-680n | [9] | [10]; Homo sapiens, NOS-1 | [10]; nos-1 | [11]; mkn-7 | [12]; Homo sapiens, SNU-C2B | [12]; snu-c2b | [13]; ca9-22 | [15]; msto-211h | [16]; Homo sapiens, LCLC-103H | [16]; lclc-103h | [17]; bhy | [20]; nci-h358 | [21] | [22]; Homo sapiens, SK-HEP1 | [22]; sk-hep-1 | [23]; kyse-180 | [24]; kp-4 | [25]; Homo sapiens, NCI-H1563 | [25]; nci-h1563 | [26]; 8505c | [28]; nci-h1437 | [29]; mda-mb-361 | [30]; wm-115 | [32]; colo-678 | [33]; Homo sapiens, KM12 | [33]; km12 | [35]; Homo sapiens, M059J | [35]; m059j | [36]; Homo sapiens, OAW-28 | [36]; oaw-28 | [37] | [38]; Homo sapiens, EFO-27 | [38]; efo-27 | [39]; Homo sapiens, RPMI-2650 | [39]; rpmi-2650 | [40]; Homo sapiens, HTC-C3 | [40]; htc-c3 | [42]; mda-mb-175-vii | [44]; Homo sapiens, FaDu | [44]; fadu | [45]; kns-42 | [47]; kle
1.85 µM and > 5.12 µM: [43]; d-542mg
3.17 µM: [2]; Homo sapiens, CAKI-1

CN(Cc1cnc2nc(N)nc(N)c2n1)c1ccc(C(=O)N[C@@H](CCC(=O)O)C(=O)O)cc1 [METHOTREXATE]
> 200 nM: [19]; Homo sapiens, A204 | [49] | [27]; Homo sapiens, HSC-2 | [34]; Homo sapiens, HuCCT-1 | [41]; Homo sapiens, D-336MG
> 0.2 µM: [1]; Homo sapiens, NMC-G1 | [2]; Homo sapiens, CAKI-1 | [3] | [4]; Homo sapiens, PFSK-1 | [5]; Homo sapiens, 8-MG-BA | [7]; Homo sapiens, TE-11 | [8]; Homo sapiens, COLO-680N | [9] | [10]; Homo sapiens, NOS-1 | [11]; Homo sapiens, MKN-7 | [13]; Homo sapiens, Ca9-22 | [15]; Homo sapiens, MSTO-211H | [17]; Homo sapiens, BHY | [48] | [20]; Homo sapiens, NCI-H358 | [22]; Homo sapiens, SK-HEP1 | [23]; Homo sapiens, KYSE-180 | [24]; Homo sapiens, KP-4 | [25]; Homo sapiens, NCI-H1563 | [26]; Homo sapiens, 8505C | [28]; Homo sapiens, NCI-H1437 | [29]; Homo sapiens, MDA-MB-361 | [30]; Homo sapiens, WM-115 | [32]; Homo sapiens, COLO-678 | [35]; Homo sapiens, M059J | [36]; Homo sapiens, OAW-28 | [37] | [38]; Homo sapiens, EFO-27 | [39]; Homo sapiens, RPMI-2650 | [40]; Homo sapiens, HTC-C3 | [42]; Homo sapiens, MDA-MB-175-VII | [44]; Homo sapiens, FaDu | [45]; Homo sapiens, KNS-42 | [47]; Homo sapiens, KLE
0.164 µM: [33]; Homo sapiens, KM12
36.3 nM: [31]
0.145 µM: [12]; Homo sapiens, SNU-C2B
0.174 µM: [16]; Homo sapiens, LCLC-103H
85.3 nM: [18]; Homo sapiens, ACHN
148 nM: [46]; Homo sapiens, ES7
26.9 nM: [14]
57.1 nM: [6]

Cn1cc(C2=C(c3ccc(Cl)cc3Cl)C(=O)NC2=O)c2ccccc21 [SB-216763]
> 10000 nM: [6] | [14] | [18]; Homo sapiens, ACHN | [19]; Homo sapiens, A204 | [27]; Homo sapiens, HSC-2 | [31] | [34]; Homo sapiens, HuCCT-1 | [41]; Homo sapiens, D-336MG | [46]; Homo sapiens, ES7
> 10 µM: [1]; Homo sapiens, NMC-G1 | [2]; Homo sapiens, CAKI-1 | [3] | [4]; Homo sapiens, PFSK-1 | [5]; Homo sapiens, 8-MG-BA | [7]; Homo sapiens, TE-11 | [8]; Homo sapiens, COLO-680N | [9] | [10]; Homo sapiens, NOS-1 | [11]; Homo sapiens, MKN-7 | [12]; Homo sapiens, SNU-C2B | [13]; Homo sapiens, Ca9-22 | [15]; Homo sapiens, MSTO-211H | [16]; Homo sapiens, LCLC-103H | [17]; Homo sapiens, BHY | [48] | [20]; Homo sapiens, NCI-H358 | [22]; Homo sapiens, SK-HEP1 | [23]; Homo sapiens, KYSE-180 | [24]; Homo sapiens, KP-4 | [25]; Homo sapiens, NCI-H1563 | [26]; Homo sapiens, 8505C | [28]; Homo sapiens, NCI-H1437 | [29]; Homo sapiens, MDA-MB-361 | [30]; Homo sapiens, WM-115 | [32]; Homo sapiens, COLO-678 | [33]; Homo sapiens, KM12 | [35]; Homo sapiens, M059J | [36]; Homo sapiens, OAW-28 | [37] | [38]; Homo sapiens, EFO-27 | [39]; Homo sapiens, RPMI-2650 | [40]; Homo sapiens, HTC-C3 | [42]; Homo sapiens, MDA-MB-175-VII | [43]; Homo sapiens, D-542MG | [44]; Homo sapiens, FaDu | [45]; Homo sapiens, KNS-42 | [47]; Homo sapiens, KLE
